Test results taken from ChEMBL document CHEMBL1131826, “Targeting nitric oxide to cancer cells: cytotoxicity studies of glyco-S-nitrosothiols” (1999).
“And” between values parts separate entries of the source, which are not always exact repeats. Equal values may be shown once.

Experiments:
Type in all cases: functional
DU-145 [1] = test: Cytotoxicity towards DU145 human prostate cancer cell was expressed as median effect dose (MED)
DU-145 [2] = test: Cytotoxicity was evaluated against DU-145 human prostate cancer cells at 2 log dose
DU-145 [3] = test: Cytotoxicity was evaluated against DU-145 human prostate cancer cells at 20 uM concentration
DU-145 [4] = test: Cytotoxicity was evaluated against DU-145 human prostate cancer cells at 50 uM concentration
DU-145 [5] = test: Cytotoxicity was evaluated against DU-145 human prostate cancer cells at 0.7 log dose
DU-145 [6] = test: Cytotoxicity was evaluated against DU-145 human prostate cancer cells at 1.7 log dose
DU-145 [7] = test: Cytotoxicity was evaluated against DU-145 human prostate cancer cells at 10 uM concentration
DU-145 [8] = test: Cytotoxicity was evaluated against DU-145 human prostate cancer cells at 13 uM concentration
DU-145 [9] = test: Cytotoxicity was evaluated against DU-145 human prostate cancer cells at 15 uM concentration
DU-145 [10] = test: Cytotoxicity was evaluated against DU-145 human prostate cancer cells at 0.3 log dose
DU-145 [11] = test: Cytotoxicity was evaluated against DU-145 human prostate cancer cells at 1.4 log dose
DU-145 [12] = test: Cytotoxicity was evaluated against DU-145 human prostate cancer cells at 180 uM concentration
DU-145 [13] = test: Cytotoxicity was evaluated against DU-145 human prostate cancer cells at 35 uM concentration
DU-145 [14] = test: Cytotoxicity was evaluated against DU-145 human prostate cancer cells at 60 uM concentration
DU-145 [15] = test: Cytotoxicity was evaluated against DU-145 human prostate cancer cells at 1.5 log dose
DU-145 [16] = test: Cytotoxicity was evaluated against DU-145 human prostate cancer cells at 100 uM concentration
DU-145 [17] = test: Cytotoxicity was evaluated against DU-145 human prostate cancer cells at 110 uM concentration

SMILES	MED (DU-145 [1])	Log effect (DU-145 [2])	Surviving fraction (DU-145 [3])	Surviving fraction (DU-145 [4])	Log effect (DU-145 [5])	Log effect (DU-145 [6])	Surviving fraction (DU-145 [7])	Surviving fraction (DU-145 [8])	Surviving fraction (DU-145 [9])	Log effect (DU-145 [10])	Log effect (DU-145 [11])	Surviving fraction (DU-145 [12])	Surviving fraction (DU-145 [13])	Surviving fraction (DU-145 [14])	Log effect (DU-145 [15])	Surviving fraction (DU-145 [16])	Surviving fraction (DU-145 [17])
CC(=O)N[C@@H](C(=O)NC1C(O)OC(CO)C(O)C1O)C(C)(C)SN=O (stereo not given in full)	32 µM	0 and -0.01	–	–	–	–	–	–	–	–	–	–	–	–	–	–	–
CC(=O)N[C@@H](C(=O)N[C@]1(CO)O[C@H](CO)[C@@H](O)[C@@H]1O)C(C)(C)SN=O	8.5 µM	–	0.45	0.2	-0.03	0.9	0.6	0.55	0.5	-0.06	0.6	–	–	–	–	–	–
CC(=O)N[C@@H](C(=O)O)C(C)(C)SN=O	110 µM	–	–	–	–	–	–	–	–	–	0	0.2	1	1	0	0.6	0.5
